Measurements from US5091370A, “Angolamycin derivatives” (Sanraku Incorporated, priority 1989, dated 1992).

Experiment: Stability test against a mouse liver homogenate
Type: in vitro ADME, ICR-strain mice
Conditions: mouse liver homogenate supernatant, pH 7.2, 37° C., unchanged product remaining by TLC/chromatoscanner (283 nm), read-out: Residual activity ratio (%)
Procedure: The livers of ICR-strain mice were homogenized together with 5 times their amount of 0.1M phosphate buffer (pH 7.2) in a Potter homogenizer (3000 rpm, 10 minutes). One ml of 500 micrograms/ml of a test compound (10% methanol water) was added to the supernatant (1 ml) of the homogenate, and reacted at 37° C. for 1 hour. The mixture was heated at 100° C. of 3 minutes. Then, 1 ml of 0.1M phosphate buffer (pH 9.0) was added, and the mixture was extracted with 1 ml of ethyl acetate, organic layer was subjected to silica gel thin-layer chromatography (chloroform/methanol/ammonia=15/1.2/0.1), and by a chromatoscanner (283 nm), the ratio of an unchanged product and a hydrolyzed product formed was determined. The amount of the unchanged product remaining was expressed by percentage.

Row | remaining at 1 h | SMILES
1 | 94% | CCC1OC(=O)CC(O)C(C)C(OC2CC(N(C)C)C(OC3CC(C)(O)C(OC(=O)Cc4ccc(C(C)=O)cc4)C(C)O3)C(C)O2)C(CC=O)CC(C)C(=O)/C=C/C2(C)OC2C1COC1OC(C)C(O)C(OC)C1OC (stereo not drawn) [Compound (1), 4"-O-(p-acetylphenylacetyl)-angolamycin]
2 | 95% | CCC1OC(=O)CC(O)C(C)C(OC2CC(N(C)C)C(OC3CC(C)(O)C(OC(=O)Cc4ccc(OC)cc4)C(C)O3)C(C)O2)C(CC=O)CC(C)C(=O)/C=C/C2(C)OC2C1COC1OC(C)C(O)C(OC)C1OC (stereo not drawn) [Compound (2), 4"-O-(p-methoxyphenylacetyl)-angolamycin]
3 | 55% | CCC1OC(=O)CC(O)C(C)C(OC2CC(N(C)C)C(OC3CC(C)(O)C(OC(=O)CC(C)C)C(C)O3)C(C)O2)C(CC=O)CC(C)C(=O)/C=C/C2(C)OC2C1COC1OC(C)C(O)C(OC)C1OC (stereo not drawn) [Control compound (1), 4"-O-isovaleryl angola-mycin, reference compound]
